Columns and labels:
[1] = Metabolic stability in human liver microsomes; assay type: in vitro ADME; details: LM Clint (intrinsic clearance); 1 μM test compound, 0.5 mg protein/mL microsome, 37° C., up to 60 min
Protocol: 2.1. Test Compound and Control Working Solution Preparation: Working solution: 5 µL of compound and control stock solution (10 mM in dimethyl sulfoxide (DMSO)) were diluted with 495 μL of acetonitrile (ACN) (intermediate solution concentration: 100 μM, 99% ACN).
2.2.1. […] 2.2.2. Preparation Procedure: The appropriate amount of NADPH powder were weighed and diluted into a 10 mM MgCl2 solution (working solution concentration: 10 unit/mL; final concentration in reaction system: 1 unit/mL).
2.3.2. Preparation Procedure: The appropriate concentrations of microsome working solutions were prepared in 100 mM potassium phosphate buffer. 2.4. Stop Solution Preparation: Cold (4° C.) acetonitrile (ACN) containing 200 ng/mL tolbutamide and 200 ng/mL labetalol as internal standards (IS) were used as the stop solution.
2.5.1. Pre-warm empty ‘Incubation’ plates T60 and NCF60 for 10 min minutes. 2.5.2. Liver microsomes were diluted to 0.56 mg/mL in 100 mM phosphate buffer. 2.5.3. 445 uL microsome working solutions (0.56 mg/mL) were transferred into pre-warmed ‘Incubation’ plates T60 and NCF60. Then ‘Incubation’ plates T60 and NCF60 were pre-incubated for 10 min at 37° C. with constant shaking. 54 μL liver microsomes were transferred to blank plate, then 6 μL NAPDH cofactor were added to the blank plate, and then 180 μL quenching solution can be added to blank plate. 2.5.4 5 μL compound working solution (100 μM) were added into ‘incubation’ plates (T60 and NCF60) containing microsomes and mix 3 times thoroughly. 2.5.5. For the NCF60 plate, 50 uL of buffer were added and were mixed 3 times thoroughly. Start timing; plate was incubated at 37° C. for 60 min while shaking. 2.5.6. In ‘Quenching’ plate TO, 180 μL quenching solution were added and 6 μL NAPDH cofactor were added. Ensured the plate was chilled to prevent evaporation. 2.5.7. For the T60 plate, were mixed 3 times thoroughly, and immediately removed 54 μL mixture for the 0-min time point to ‘Quenching’ plate. Then 44 μL NAPDH cofactor were added to incubation plate (T60). Start timing; plate were incubated at 37° C. for 60 min while shaking.
2.5.8. At 5, 10, 20, 30, and 60 min, 180 μL quenching solution were added to ‘Quenching’ plates, mix once, and were serially transferred 60 μL sample from T60 plate per time point to ‘Quenching’ plates.
2.5.9. For NCF60: were mixed once, and 60 μL sample were transferred from the NCF60 incubation to ‘Quenching’ plate containing quenching solution at the 60-min time point.
2.5.10. All sampling plates were shaken for 10 min, then centrifuged at 4000 rpm for 20 minutes at 4° C. 2.5.11. 80 μL supernatant were transferred into 240 μL HPLC water, and were mixed by plate shaker for 10 min. 2.5.12. Each bioanalysis plate were sealed and shaken for 10 minutes prior to LC-MS/MS analysis.
3.1. The equation of first order kinetics were used to calculate T1/2 and Intrinsic clearance (CLint mic) in (μL/min/mg).
Equation of first order kinetic.

[2] = molecular target: T1, TNIK kinase [amino acid sequence (1-367), Invitrogen] (Homo sapiens, UniProt Q9UKE5); experiment: TNIK kinase inhibition assay (Z-lyte FRET-peptide); assay type: biochemical; details: 0.625 nM TNIK kinase, 2 μM Ser/Thr 7 peptide, 64 μM ATP, one hour at room temperature
T1 construct: purchased Invitrogen
T1 sequence (Q9UKE5 1-367): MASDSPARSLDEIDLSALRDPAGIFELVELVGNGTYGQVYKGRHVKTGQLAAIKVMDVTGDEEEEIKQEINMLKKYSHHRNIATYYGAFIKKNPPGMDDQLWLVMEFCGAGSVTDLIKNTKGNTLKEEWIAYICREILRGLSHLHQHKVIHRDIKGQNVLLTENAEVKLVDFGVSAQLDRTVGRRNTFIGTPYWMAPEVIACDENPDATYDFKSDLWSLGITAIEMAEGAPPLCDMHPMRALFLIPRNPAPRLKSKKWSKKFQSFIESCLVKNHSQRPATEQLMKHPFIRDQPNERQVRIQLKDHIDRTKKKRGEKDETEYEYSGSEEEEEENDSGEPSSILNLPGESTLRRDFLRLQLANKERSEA

Row | Human Liver Microsome (μM/min/mg) [1] | IC50 [2] | Structure (SMILES)
1 | + (>100 μM/min/mg as +) | 1 to 12 nM | CC(C)n1cnc(-c2ccc(F)cc2)c1-c1nc(C(=O)Nc2ccc3c(n2)CN(C)CC3)cs1 [Compound 43, 2-(4-(4-fluorophenyl)-1-isopropyl-1H-imidazol-5-yl)-N-(7-methyl-5,6,7,8-tetrahydro-1,7-naphthyridin-2-yl)thiazole-4-carboxamide]
2 | ++ (10-100 μM/min/mg as ++) | 1 to 12 nM | CC(C)n1cnc(-c2ccc(F)cc2)c1-c1nc(C(=O)Nc2ccc(C3CCOCC3)cn2)c[nH]1 [Compound 53, 5′-(4-fluorophenyl)-3′-isopropyl-N-(5-(tetrahydro-2H-pyran-4-yl)pyridin-2-yl)-1H,3′H-[2,4′-biimidazole]-4-carboxamide]
3 | ++ (10-100 μM/min/mg as ++) | 1 to 12 nM | CC(C)n1cnc(-c2ccc(F)cc2)c1-c1nc(C(=O)Nc2ccc(C3COC3)cn2)c[nH]1 [Compound 54, 5′-(4-fluorophenyl)-3′-isopropyl-N-(5-(oxetan-3-yl)pyridin-2-yl)-1H,3′H-[2,4′-biimidazole]-4-carboxamide]
4 | ++ (10-100 μM/min/mg as ++) | 1 to 12 nM | CC(C)n1cnc(-c2ccc(F)cc2)c1-c1nc(C(=O)Nc2ccc(C3COC3)cc2F)c[nH]1 [Compound 55, N-(2-fluoro-4-(oxetan-3-yl)phenyl)-5′-(4-fluorophenyl)-3′-isopropyl-1H,3′H-[2,4′-biimidazole]-4-carboxamide]
5 | + (>100 μM/min/mg as +) | 1 to 12 nM | CC(C)n1cnc(-c2ccc(F)cc2)c1-c1nc(C(=O)Nc2ccc3c(c2)CN(C)CC3)cs1 [Compound 56, 2-(4-(4-fluorophenyl)-1-isopropyl-1H-imidazol-5-yl)-N-(2-methyl-1,2,3,4-tetrahydroisoquinolin-7-yl)thiazole-4-carboxamide]
6 | + (>100 μM/min/mg as +) | 1 to 12 nM | CC(C)n1cnc(-c2ccc(F)cc2)c1-c1nc(C(=O)Nc2ccc(C3COC3)cn2)cs1 [Compound 57, 2-(4-(4-fluorophenyl)-1-isopropyl-1H-imidazol-5-yl)-N-(5-(oxetan-3-yl)pyridin-2-yl)thiazole-4-carboxamide]
7 | ++ (10-100 μM/min/mg as ++) | 1 to 12 nM | CC(C)n1cnc(-c2ccc(F)cc2)c1-c1nc(C(=O)Nc2ccc(C3CN(C)C3)cc2F)cs1 [Compound 58, N-(2-fluoro-4-(1-methylazetidin-3-yl)phenyl)-2-(4-(4-fluorophenyl)-1-isopropyl-1H-imidazol-5-yl)thiazole-4-carboxamide]
8 | + (>100 μM/min/mg as +) | 1 to 12 nM | CC(C)n1cnc(-c2ccc(F)cc2)c1-c1nc(C(=O)Nc2ccc(C3COC3)cc2F)cs1 [Compound 59]
9 | + (>100 μM/min/mg as +) | > 150 nM | O=C(Nc1ccc(C2COC2)cn1)c1coc(-c2c(-c3ccc(F)cc3)ncn2C2CC(F)(F)C2)n1 [Compound 63, 2-(1-(3,3-difluorocyclobutyl)-4-(4-fluorophenyl)-1H-imidazol-5-yl)-N-(5-(oxetan-3-yl)pyridin-2-yl)oxazole-4-carboxamide]
10 | + (>100 μM/min/mg as +) | 1 to 12 nM | CC(C)n1cnc(-c2ccc(F)cc2)c1-c1nc(C(=O)Nc2ccc(N3CC(N(C)C)C3)cn2)cs1 [Compound 64, N-(5-(3-(dimethylamino)azetidin-1-yl)pyridin-2-yl)-2-(4-(4-fluorophenyl)-1-isopropyl-1H-imidazol-5-yl)thiazole-4-carboxamide]
11 | ++ (10-100 μM/min/mg as ++) | 1 to 12 nM | O=C(Nc1ccc(N2CCOCC2)cn1)c1csc(-c2c(-c3ccc(F)cc3)ncn2C2CC(F)(F)C2)n1 [Compound 65, 2-(1-(3,3-difluorocyclobutyl)-4-(4-fluorophenyl)-1H-imidazol-5-yl)-N-(5-morpholinopyridin-2-yl)thiazole-4-carboxamide]
12 | ++ (10-100 μM/min/mg as ++) | 12 to 150 nM | O=C(Nc1ccc(N2CCOCC2)cn1)c1coc(-c2c(-c3ccc(F)cc3)ncn2C2CC(F)(F)C2)n1 [Compound 66, 2-(1-(3,3-difluorocyclobutyl)-4-(4-fluorophenyl)-1H-imidazol-5-yl)-N-(5-morpholinopyridin-2-yl)oxazole-4-carboxamide]
13 | ++ (10-100 μM/min/mg as ++) | 1 to 12 nM | O=C(Nc1ccc(N2CCC2)cn1)c1csc(-c2c(-c3ccc(F)cc3)ncn2C2CC(F)(F)C2)n1 [Compound 68, N-(5-(azetidin-1-yl)pyridin-2-yl)-2-(1-(3,3-difluorocyclobutyl)-4-(4-fluorophenyl)-1H-imidazol-5-yl)thiazole-4-carboxamide]
14 | ++ (10-100 μM/min/mg as ++) | 1 to 12 nM | O=C(Nc1ccc(N2CCOCC2)cn1)c1csc(-c2c(-c3ccc(F)cc3)ncn2C2COC2)n1 [Compound 70, 2-(4-(4-fluorophenyl)-1-(oxetan-3-yl)-1H-imidazol-5-yl)-N-(5-morpholinopyridin-2-yl)thiazole-4-carboxamide]
15 | + (>100 μM/min/mg as +) | 1 to 12 nM | O=C(Nc1ccc(C2COC2)cn1)c1csc(-c2c(-c3ccc(F)cc3)ncn2C2CC(F)(F)C2)n1 [Compound 74, 2-(1-(3,3-difluorocyclobutyl)-4-(4-fluorophenyl)-1H-imidazol-5-yl)-N-(5-(oxetan-3-yl)pyridin-2-yl)thiazole-4-carboxamide]
16 | + (>100 μM/min/mg as +) | 12 to 150 nM | O=C(Nc1ccc(C2COC2)cc1F)c1coc(-c2c(-c3ccc(F)cc3)ncn2C2CC(F)(F)C2)n1 [Compound 81, 2-(1-(3,3-difluorocyclobutyl)-4-(4-fluorophenyl)-1H-imidazol-5-yl)-N-(2-fluoro-4-(oxetan-3-yl)phenyl)oxazole-4-carboxamide]

Row | Structure (SMILES) | Human Liver Microsome (μM/min/mg) [1] | IC50 [2]
17 | CC(C)n1cnc(-c2ccc(F)cc2)c1-c1nc(C(=O)Nc2ccc(N3CC4CC(C3)N4C)cn2)cs1 [Compound 44, 2-(4-(4-fluorophenyl)-1-isopropyl-1H-imidazol-5-yl)-N-(5-(6-methyl-3,6-diazabicyclo[3.1.1]heptan-3-yl)pyridin-2-yl)thiazole-4-carboxamide] | ++ (10-100 μM/min/mg as ++) | 1 to 12 nM
18 | CN1C2CC1CN(c1ccc(NC(=O)c3csc(-c4c(-c5ccc(F)cc5)ncn4C4CC4)n3)nc1)C2 [Compound 45, 2-(1-cyclopropyl-4-(4-fluorophenyl)-1H-imidazol-5-yl)-N-(5-(6-methyl-3,6-diazabicyclo[3.1.1]heptan-3-yl)pyridin-2-yl)thiazole-4-carboxamide] | ++ (10-100 μM/min/mg as ++) | 1 to 12 nM
19 | CN1[C@@H]2CC[C@H]1CN(c1ccc(NC(=O)c3csc(-c4c(-c5ccc(F)cc5)ncn4C4COC4)n3)nc1)C2 [Compound 51, 2-(4-(4-fluorophenyl)-1-(oxetan-3-yl)-1H-imidazol-5-yl)-N-(5-((1R,5S)-8-methyl-3,8-diazabicyclo[3.2.1]octan-3-yl)pyridin-2-yl)thiazole-4-carboxamide] | ++ (10-100 μM/min/mg as ++) | 1 to 12 nM
20 | CC(C)n1cnc(-c2ccc(F)cc2)c1-c1nc(C(=O)Nc2ccc(C3=C[C@H]4CC[C@@H](C3)N4C)cn2)cs1 [Compound 61, 2-(4-(4-fluorophenyl)-1-isopropyl-1H-imidazol-5-yl)-N-(5-((1R,5S)-8-methyl-8-azabicyclo[3.2.1]oct-2-en-3-yl)pyridin-2-yl)thiazole-4-carboxamide] | ++ (10-100 μM/min/mg as ++) | 1 to 12 nM
